Results as given in patent US6962912B2, “Substituted pyrazolo[4,3-e]diazepines, pharmaceutical compositions containing them, use as medicinal products and processes for preparing them” (Warner-Lambert LLC, priority 2000, dated 2005).

Assays:
PDE4 = experiment: Inhibition of PDE4 (cytosolic enzyme preparation from U937 line), compared with rolipram; type: biochemical, human; details: PDE4 enzyme preparation obtained from the U937 line

SMILES | IC50 (PDE4) | melting point
CCn1nc(-c2ccccc2)c2c1C(=O)NCC(c1ccccc1)=N2 [Example 4, 1-Ethyl-3,5-diphenyl-6,7-dihydro-1H-pyrazolo[4,3-e][1,4]diazepin-8-one] | 8.4 nM | 
CCOC(=O)c1nn(CC)c2c1N=C(c1ccccc1)CNC2=O [Example 5, Ethyl 1-ethyl-8-oxo-5-phenyl-1,6,7,8-tetrahydropyrazolo-[4,3-e][1,4]diazepin-3-carboxylate] | 390 nM | 
CCn1nc(C)c2c1C(=O)NCC(c1ccc(Br)cc1)=N2 [Example 7, 5-(4-Bromophenyl)-1-ethyl-3-methyl-6,7-dihydro-1H-pyrazolo[4,3-e][1,4]diazepin-8-one] | 130 nM | 223 °C
CCn1nc(C)c2c1C(=O)NCC(c1ccc3ccccc3c1)=N2 [Example 8, 1-Ethyl-3-methyl-5-naphth-2-yl-6,7-dihydro-1H-pyrazolo[4,3-e][1,4]diazepin-8-one] | 210 nM | 193 °C
CCn1nc(C)c2c1C(=O)NCC(c1sccc1Cl)=N2 [Example 9, 5-(3-Chlorothien-2-yl)-1-ethyl-3-methyl-6,7-dihydro-1H-pyrazolo[4,3-e][1,4]diazepin-8-one] | 150 nM | 213 °C
CCn1nc(C)c2c1C(=O)NCC(CCC(=O)OC)=N2 [Example 10, Methyl 3-(1-ethyl-3-methyl-8-oxo-1,6,7,8-tetrahydro-pyrazolo[4,3-e][1,4]diazepin-5-yl)propanoate] | 1290 nM | 
CCn1nc(C)c2c1C(=O)NCC(c1ccc(Cl)cc1)=N2 [Example 11, 5-(4-Chlorophenyl)-1-ethyl-3-methyl-6,7-dihydro-1H-pyrazolo[4,3-e][1,4]diazepin-8-one] | 120 nM | 215 °C
CCn1nc(C)c2c1C(=O)NCC(c1ccc(F)cc1)=N2 [Example 13, 1-Ethyl-5-(4-fluorophenyl)-3-methyl-6,7-dihydro-1H-pyrazolo[4,3-e][1,4]diazepin-8-one] | 130 nM | 174 °C
CCn1nc(C)c2c1C(=O)NCC(c1cccc(Br)c1)=N2 [Example 14, 5-(3-Bromophenyl)-1-ethyl-3-methyl-6,7-dihydro-1H-pyrazolo-[4,3-e][1,4]diazepin-8-one] | 81 nM | 173 °C
CCn1nc(C)c2c1C(=O)NCC(c1cccc(OC)c1)=N2 [Example 18, 1-Ethyl-5-(3-methoxyphenyl)-3-methyl-6,7-dihydro-1H-pyrazolo[4,3-e][1,4]diazepin-8-one] | 100 nM | 120 °C
CCn1nc(C)c2c1C(=O)NCC(c1ccccc1N)=N2 [Example 19, 5-(2-Aminophenyl)-1-ethyl-3-methyl-6,7-dihydro-1H-pyrazolo[4,3-e][1,4]diazepin-8-one] | 87 nM | 156 °C
CCn1nc(C)c2c1C(=O)NCC(c1ccccc1OC)=N2 [Example 20, 1-Ethyl-5-(2-methoxyphenyl)-3-methyl-6,7-dihydro-1H-pyrazolo[4,3-e][1,4]diazepin-8-one] | 99 nM | 214 °C
CCCn1nc(C)c2c1C(=S)NCC(c1ccccc1)=N2 [Example 22, 3-Methyl-5-phenyl-1-propyl-6,7-dihydro-1H-pyrazolo[4,3-e][1,4]diazepin-8-thione] | 28 nM | 156 °C
CCn1nc(C(C)C)c2c1C(=O)NCC(c1ccc(N)cc1)=N2 [Example 27, 5-(4-Aminophenyl)-1-ethyl-3-isopropyl-6,7-dihydro-1H-pyrazolo[4,3-e][1,4]diazepin-8-one] | 3.8 nM | 191 °C
CCCn1nc(C)c2c1C(=O)NCC(c1ccc(N)cc1)=N2 [Example 29, 5-(4-Aminophenyl)-3-methyl-1-propyl-6,7-dihydro-1H-pyrazolo[4,3-e][1,4]diazepin-8-one] | 330 nM | 225 °C
Cc1nn(CC(F)(F)F)c2c1N=C(c1ccccc1)CNC2=O [Example 30, 3-Methyl-5-phenyl-1-(2.2.2-trifluoroethyl)-6,7-dihydro-1H-pyrazolo[4,3-e][1,4]diazepin-8-one] | 300 nM | 
CCn1nc(C(C)C)c2c1C(=O)NCC(c1ccc(N3CCCC3)cc1)=N2 [Example 38, 1-Ethyl-3-isopropyl-5-(4-pyrrolidin-1-yl-phenyl)-6,7-dihydro-1H-pyrazolo[4,3-e][1,4]diazepin-8-one] | 650 nM | 
CCCn1nc(C(C)C)c2c1C(=O)NCC(c1ccc(OC)cc1OC)=N2 [Example 43, 5-(2,4-Dimethoxyphenyl)-3-isopropyl-1-propyl-6,7-dihydro-1H-pyrazolo[4,3-e][1,4]diazepin-8-one] | 48 nM | 
CCn1nc(C(C)(C)C)c2c1C(=O)NCC(C(C)(C)C)=N2 [Example 44, 3,5-Di-tert-butyl-1-ethyl-6,7-dihydro-1H-pyrazolo[4,3-e][1,4]diazepin-8-one] | 1.1 nM | 

Second part, the molecule after the results:

IC50 (PDE4) | melting point | SMILES
11 nM |  | CCCn1nc(C(C)CC)c2c1C(=O)NCC(c1ccccc1)=N2 (racemic) [Example 70, (±)3-sec-Butyl-5-phenyl-1-propyl-6,7-dihydro-1H-pyrazolo-[4,3-e][1,4]diazepin-8-one]
33 nM | 50 °C | CCC(C)c1nn(CC)c2c1N=C(c1ccc(OC)cc1)CNC2=O (racemic) [Example 89, (±)3-sec-Butyl-1-ethyl-5-(4-methoxyphenyl)-6,7-dihydro-1H-pyrazolo[4,3-e][1,4]diazepin-8-one]
193 nM | 85 °C | CCCn1nc(C(C)CC)c2c1C(=O)NCC(c1ccc(OC)cc1)=N2 (racemic) [Example 90, (±)3-sec-Butyl-5-(4-methoxyphenyl)-1-propyl-6,7-dihydro-1H-pyrazolo[4,3-e][1,4]diazepin-8-one]
21 nM |  | CCn1nc(C(C)(C)C)c2c1C(=O)NCC(c1ccc(OC)cc1OC)=N2 [Example 47, 3-tert-Butyl-5-(2,4-dimethoxyphenyl)-1-ethyl-6,7-dihydro-1H-pyrazolo[4,3-e][1,4]diazepin-8-one]
8.1 nM |  | CCCn1nc(C(C)(C)C)c2c1C(=O)NCC(C(C)(C)C)=N2 [Example 48, 3,5-Di-tert-butyl-1-propyl-6,7-dihydro-1H-pyrazolo[4,3-e][1,4]diazepin-8-one]
32 nM |  | CCCn1nc(C(C)(C)C)c2c1C(=O)NCC(c1ccc(C)cc1)=N2 [Example 49, 3-tert-Butyl-1-propyl-5-p-tolyl-6,7-dihydro-1H-pyrazolo[4,3-e][1,4]diazepin-8-one]
16 nM |  | CCCn1nc(C(C)(C)C)c2c1C(=O)NCC(c1ccc(C#N)cc1)=N2 [Example 50, 4-(3-tert-Butyl-8-oxo-1-propyl-1,6,7,8-tetrahydro-1H-pyrazolo[4,3-e][1,4]diazepin-5-yl)benzonitrile]
60 nM |  | CCCn1nc(C(C)(C)C)c2c1C(=O)NCC(c1ccc(OC)cc1OC)=N2 [Example 51, 3-tert-Butyl-5-(2,4-dimethoxyphenyl)-1-propyl-6,7-dihydro-1H-pyrazolo[4,3-e][1,4]diazepin-8-one]
500 nM |  | CCn1nc(C)c2c1C(=O)NCC(c1ccc(N(S(=O)(=O)c3ccccc3)S(=O)(=O)c3ccccc3)cc1)=N2 [Example 56, N-[4-(1-Ethyl-3-methyl-8-oxo-1,6,7,8-tetrahydro-pyrazolo[4,3-e][1,4]diazepin-5-yl)phenyl]-(phenylsulphonyl)benzenesulphonamide]
140 nM |  | Cc1nn(CC2CC2)c2c1N=C(c1ccccc1)CNC2=O [Example 58, 1-Cyclopropylmethyl-3-methyl-5-phenyl-6,7-dihydro-1H-pyrazolo[4,3-e][1,4]diazepin-8-one]
510 nM |  | C=CCn1nc(C)c2c1C(=O)NCC(c1ccccc1)=N2 [Example 59, 1-Allyl-3-methyl-5-phenyl-6,7-dihydro-1H-pyrazolo[4,3-e][1,4]diazepin-8-one]
7.9 nM |  | CCn1nc(C(C)C)c2c1C(=O)NCC(c1ccc(C(F)(F)F)cc1)=N2 [Example 61, 1-Ethyl-3-isopropyl-5-(4-trifluoromethylphenyl)-6,7-dihydro-1H-pyrazolo[4,3-e][1,4]diazepin-8-one]
260 nM |  | CCn1nc(C)c2c1C(=O)NCC(c1ccc(C(F)(F)F)cc1)=N2 [Example 62, 1-Ethyl-3-methyl-5-(4-trifluoromethylphenyl)-6,7-dihydro-1H-pyrazolo[4,3-e][1,4]diazepin-8-one]
1.8 nM |  | CCn1nc(C2CCCCC2)c2c1C(=O)NCC(c1ccccc1)=N2 [Example 72, 3-Cyclohexyl-1-ethyl-5-phenyl-6,7-dihydro-1H-pyrazolo-[4,3-e][1,4]diazepin-8-one]
5.4 nM |  | CCCn1nc(C2CCCCC2)c2c1C(=O)NCC(c1ccccc1)=N2 [Example 74, 3-Cyclohexyl-5-phenyl-1-propyl-6,7-dihydro-1H-pyrazolo-[4,3-e][1,4]diazepin-8-one]
8.2 nM |  | CCn1nc(CC2CCCCC2)c2c1C(=O)NCC(c1ccncc1)=N2 [Example 76, 3-Cyclohexylmethyl-1-ethyl-5-pyrid-4-yl-6,7-dihydro-1H-pyrazolo[4,3-e][1,4]diazepin-8-one]
210 nM |  | CCCn1nc(CC2CCCCC2)c2c1C(=O)NCC(c1ccccc1)=N2 [Example 77, 3-Cyclohexylmethyl-5-phenyl-1-propyl-6,7-dihydro-1H-pyrazolo[4,3-e][1,4]diazepin-8-one]
21 nM |  | CCCn1nc(CC2CCCCC2)c2c1C(=O)NCC(c1ccncc1)=N2 [Example 78, 3-Cyclohexylmethyl-1-propyl-5-pyrid-4-yl-6,7-dihydro-1H-pyrazolo[4,3-e][1,4]diazepin-8-one]
11 nM |  | CCn1nc(CC2CCCCC2)c2c1C(=O)NCC(c1ccccc1)=N2 [Example 79, 3-Cyclohexylmethyl-1-ethyl-5-phenyl-6,7-dihydro-1H-pyrazolo[4,3-e][1,4]diazepin-8-one]
 | 209 °C | CCn1nc(C)c2c1C(=[SH]c1ccc(OC)cc1)NCC=N2 [Example 83, 1-Ethyl-S-(4-methoxyphenyl)-3-methyl-6,7-dihydro-1H-pyrazolo[4,3-e][1,4]diazepin-8-thione]
1580 nM |  | CCOCc1nn(CC)c2c1N=C(c1ccccc1)CNC2=O [Example 97, 3-Ethoxymethyl-1-ethyl-5-phenyl-6,7-dihydro-1H-pyrazolo-[4,3-e][1,4]diazepin-8-one]
